Some results are limits rather than exact numbers.

For the assay, the system named is genotype D HBV. Kind of assay: HBV-DNA Antiviral Assay Using HepG2.117 Cells. The format is cell-based. As to conditions: Hepatitis B virus, HepG2.117, 96 h, intracellular HBV DNA by qPCR, day 4. The protocol:
The following assay procedure describes the HBV antiviral assay, using HepG2.117 cells, which carry a stably integrated genotype D HBV genome under the control of a Tet-off promoter, and intracellular HBV DNA quantification as endpoint. Cell viability is assessed in parallel by measuring the intracellular ATP content using ATPlite (Perkin Elmer).
On day 0, HepG2.117 cells (which are maintained in routine cell culture with doxycycline present in the medium at a final concentration of 1 μg/mL) were seeded in 96-well plates (white with clear bottom) at a density of 2.0×10^4 cells/well (0.1 mL/well) in medium without doxycycline to induce pgRNA transcription and subsequent formation of HBV particles. The cells were incubated at 37° C. and 5% CO2.
On day 1, medium was removed from each well, the test articles were diluted in culture medium without doxcycyline and 100 μL was added to cell culture wells (9 concentrations, 4-fold dilution). For each plate, 6 untreated (merely DMSO) wells were included. The final concentration of DMSO in the culture medium was 2%. Each plate was prepared in duplicate (one for HBV DNA extraction, one for ATPlite measurement). The cells were incubated at 37° C. and 5% CO2 for 3 days.
On day 4, cell viability was assessed using ATPlite and cell lysates were prepared for HBV DNA extraction and subsequent quantification by qPCR.
Medium was removed from each well and 100 μL of 0.33% NP-40 in H2O was added to each well. Plates were sealed, incubated at 4° C. for 5 mins, vortexed extensively and centrifuged briefly. Next, 35 μL of lysate was added to 65 μL QuickExtract DNA Extraction Solution (Epicentre) in a PCR plate for each well. PCR plate was incubated at 65° C. for 6 mins, 98° C. for 2 mins and finally cooled to 4° C. HBV DNA was then quantified by qPCR with HBV-specific primers and probes as specified in Table 4 using the Bio-Rad SSOAdvanced Universal Probes Supermix on a CFX96 machine (Bio-Rad). The PCR cycle program consisted of 95° C. for 3 mins, followed by 40 cycles at 95° C. for 10 sec and 60° C. for 30 sec.
A DNA standard was prepared by dilution of an IDT gBlock corresponding to the amplicon with concentrations ranging from 10^2 to 10^8 copies/input (i.e. per 4 μL) and used to generate a standard curve by plotting Cq values vs. HBV DNA standard concentration. The quantity of HBV DNA in each sample was determined by interpolating from the standard curve.
Cell viability was calculated as follows: % Cell viability=(luminescence value of test sample)/(average luminescence value of 2% DMSO control)×100%. HBV DNA inhibition was calculated as follows: 100−(HBV DNA copy number of test sample)/(average HBV DNA copy number of 2% DMSO control)×100%. No normalization to entecavir was required due to the excellent dynamic window of this assay. The CC50, EC50 and EC90 values were determined by dose-response curves fitted by GraphPad Prism using “log (agonist) vs. response—Variable slope”.
(In general: In qPCR the cycle at which signal appears reflects the starting amount.)
The compound `C=C[C@]1(C)COc2c(cn(C)c2C(=O)Nc2ccc(F)c(C(F)(F)F)c2)S(=O)(=O)N1` [Compound 23B] yielded an EC50 of 1 to 10 nM. `C=C[C@H]1COc2c(cn(C)c2C(=O)Nc2ccc(F)c(C(F)(F)F)c2)S(=O)(=O)N1` [Compound 24] showed an EC50 of 1 to 10 nM. With `C=CC[C@@H](O)[C@@H]1COc2c(cn(C)c2C(=O)Nc2ccc(F)c(C#N)c2)S(=O)(=O)N1` [Compound 25A] the figure was 10 to 100 nM; with `C=CC[C@H](O)[C@@H]1COc2c(cn(C)c2C(=O)Nc2ccc(F)c(C#N)c2)S(=O)(=O)N1` [Compound 25B], 10 to 100 nM. With `C=C[C@](O)([C@@H]1COc2c(cn(C)c2C(=O)Nc2ccc(F)c(C(F)(F)F)c2)S(=O)(=O)N1)C(F)(F)F` [Compound 26] the figure was 10 to 100 nM; with `C=C[C@@H](C)[C@H]1COc2c(cn(C)c2C(=O)Nc2ccc(F)c(C#N)c2)S(=O)(=O)N1` [Compound 27A], 10 to 100 nM.

`C=C[C@H](C)[C@@H]1COc2c(cn(C)c2C(=O)Nc2ccc(F)c(C#N)c2)S(=O)(=O)N1` [Compound 27B] gave a half-maximal effective concentration (EC50) of 1 to 10 nM. Consider `C=C[C@H](C)[C@H]1COc2c(cn(C)c2C(=O)Nc2ccc(F)c(C#N)c2)S(=O)(=O)N1` [Compound 27C], for which the 50% effective concentration (EC50) lay within 10 to 100 nM. With `C=C[C@@H](C)[C@@H]1COc2c(cn(C)c2C(=O)Nc2ccc(F)c(C#N)c2)S(=O)(=O)N1` [Compound 27D] the figure was less than 1 nM. `C=C[C@@](C)(O)[C@H]1COc2c(cn(C)c2C(=O)Nc2ccc(F)c(C#N)c2)S(=O)(=O)N1` [Compound 28A]: the concentration giving a half-maximal response (EC50) lay in the range of 1 to 10 nM. With `C=C[C@](C)(O)[C@H]1COc2c(cn(C)c2C(=O)Nc2ccc(F)c(C#N)c2)S(=O)(=O)N1` [Compound 28B] the figure was 1 to 10 nM; with `C=C[C@@](C)(O)[C@H]1COc2c(cn(C)c2C(=O)Nc2ccc(F)c(C(F)(F)F)c2)S(=O)(=O)N1` [Compound 29A], 10 to 100 nM. With `C=C[C@](C)(O)[C@H]1COc2c(cn(C)c2C(=O)Nc2ccc(F)c(C(F)(F)F)c2)S(=O)(=O)N1` [Compound 29B] the figure was 1 to 10 nM. In the case of `C=C[C@@]1(CO)COc2c(cn(C)c2C(=O)Nc2ccc(F)c(C#N)c2)S(=O)(=O)N1` [Compound 30A], the EC50 was 1 to 10 nM. The compound `C=C[C@]1(CO)COc2c(cn(C)c2C(=O)Nc2ccc(F)c(C#N)c2)S(=O)(=O)N1` [Compound 30B] yielded an EC50 of 10 to 100 nM. `C=C[C@@]1(CO)COc2c(cn(C)c2C(=O)Nc2ccc(F)c(C(F)(F)F)c2)S(=O)(=O)N1` [Compound 31A]: the EC50 fell in the range of 1 to 10 nM.

The compound `C=C[C@]1(CO)COc2c(cn(C)c2C(=O)Nc2ccc(F)c(C(F)(F)F)c2)S(=O)(=O)N1` [Compound 31B] yielded a 50% effective concentration (EC50) of 1 to 10 nM. `C=C(C)[C@H]1COc2c(cn(C)c2C(=O)Nc2ccc(F)c(C#N)c2)S(=O)(=O)N1` [Compound 32] displayed an EC50 of 1 to 10 nM. Compound `C=C(C)[C@H]1COc2c(cn(C)c2C(=O)Nc2ccc(F)c(C(F)(F)F)c2)S(=O)(=O)N1` [Compound 33] came in with a concentration for a half-maximal effect (EC50) of 1 to 10 nM. The compound `C=CC(O)([C@H]1COc2c(cn(C)c2C(=O)Nc2ccc(F)c(C#N)c2)S(=O)(=O)N1)C(F)(F)F` (stereo partly shown) [Compound 34] displayed an EC50 of less than 1 nM. Consider `C#C[C@](C)(O)[C@H]1COc2c(cn(C)c2C(=O)Nc2ccc(F)c(C#N)c2)S(=O)(=O)N1` [Compound 35A], for which the concentration for a half-maximal effect (EC50) was in the range of 1 to 10 nM. With `C#C[C@@](C)(O)[C@H]1COc2c(cn(C)c2C(=O)Nc2ccc(F)c(C#N)c2)S(=O)(=O)N1` [Compound 35B] the figure was 1 to 10 nM. For `C#C[C@](C)(O)[C@H]1COc2c(cn(C)c2C(=O)Nc2ccc(F)c(C(F)(F)F)c2)S(=O)(=O)N1` [Compound 36A], the half-maximal effective concentration (EC50) is 10 to 100 nM. With `C#C[C@@](C)(O)[C@H]1COc2c(cn(C)c2C(=O)Nc2ccc(F)c(C(F)(F)F)c2)S(=O)(=O)N1` [Compound 36B] the figure was 1 to 10 nM; with `C#CC(O)([C@H]1COc2c(cn(C)c2C(=O)Nc2ccc(F)c(C#N)c2)S(=O)(=O)N1)C(F)(F)F` (stereo partly shown) [Compound 37], 10 to 100 nM. On to `C=C[C@@]1([C@H](C)O)COc2c(cn(C)c2C(=O)Nc2ccc(F)c(C#N)c2)S(=O)(=O)N1` [Compound 38A], for which the EC50 was in the range of 10 to 100 nM. With `C=C[C@]1([C@@H](C)O)COc2c(cn(C)c2C(=O)Nc2ccc(F)c(C#N)c2)S(=O)(=O)N1` [Compound 38B] the figure was 10 to 100 nM.

Compound `C=C[C@]1([C@H](C)O)COc2c(cn(C)c2C(=O)Nc2ccc(F)c(C#N)c2)S(=O)(=O)N1` [Compound 38C] came in with a concentration for a half-maximal effect (EC50) of 1 to 10 nM.

Regarding `C=C[C@@]1([C@@H](C)O)COc2c(cn(C)c2C(=O)Nc2ccc(F)c(C#N)c2)S(=O)(=O)N1` [Compound 38D], the EC50 lay in the range of 100 to 1000 nM. In the case of `C=CC1([C@H]2COc3c(cn(C)c3C(=O)Nc3ccc(F)c(C#N)c3)S(=O)(=O)N2)CCOCC1` [Compound 39A], the concentration giving a half-maximal response (EC50) was 10 to 100 nM. In turn, `C=CC1([C@@H]2COc3c(cn(C)c3C(=O)Nc3ccc(F)c(C#N)c3)S(=O)(=O)N2)CCOCC1` [Compound 39B] returned an EC50 of 10 to 100 nM.

With `C=CC[C@](C)(O)[C@H]1COc2c(cn(C)c2C(=O)Nc2ccc(F)c(C#N)c2)S(=O)(=O)N1` [Compound 40A], the EC50 is 1 to 10 nM. The compound `C=CC[C@@](C)(O)[C@H]1COc2c(cn(C)c2C(=O)Nc2ccc(F)c(C#N)c2)S(=O)(=O)N1` [Compound 40B] registered an EC50 of 1 to 10 nM.

In the case of `C=C[C@H](O)[C@]1(C)COc2c(cn(C)c2C(=O)Nc2ccc(F)c(C#N)c2)S(=O)(=O)N1` [Compound 41A], the concentration for a half-maximal effect (EC50) fell in the range of 1 to 10 nM.

Consider `C=C[C@@H](O)[C@@]1(C)COc2c(cn(C)c2C(=O)Nc2ccc(F)c(C#N)c2)S(=O)(=O)N1` [Compound 41B], for which the EC50 lay in the range of 1 to 10 nM.

For the compound `C=C[C@H](O)[C@@]1(C)COc2c(cn(C)c2C(=O)Nc2ccc(F)c(C#N)c2)S(=O)(=O)N1` [Compound 41C], the EC50 was in the range of 10 to 100 nM.

Compound `C=C[C@@H](O)[C@]1(C)COc2c(cn(C)c2C(=O)Nc2ccc(F)c(C#N)c2)S(=O)(=O)N1` [Compound 41D] had a concentration for a half-maximal effect (EC50) of 10 to 100 nM. In turn, `C#C[C@H](O)[C@]1(C)COc2c(cn(C)c2C(=O)Nc2ccc(F)c(C#N)c2)S(=O)(=O)N1` [Compound 42A] yielded an EC50 of 1 to 10 nM. Consider `C#C[C@@H](O)[C@@]1(C)COc2c(cn(C)c2C(=O)Nc2ccc(F)c(C#N)c2)S(=O)(=O)N1` [Compound 42B], for which the EC50 was 1 to 10 nM. `C#C[C@H](O)[C@@]1(C)COc2c(cn(C)c2C(=O)Nc2ccc(F)c(C#N)c2)S(=O)(=O)N1` [Compound 42C]: the EC50 is 1 to 10 nM.

In turn, `C#C[C@@H](O)[C@]1(C)COc2c(cn(C)c2C(=O)Nc2ccc(F)c(C#N)c2)S(=O)(=O)N1` [Compound 42D] registered a half-maximal effective concentration (EC50) of 10 to 100 nM.

Take `C=CC1([C@H]2COc3c(cn(C)c3C(=O)Nc3ccc(F)c(C#N)c3)S(=O)(=O)N2)CCS(=O)(=O)CC1` [Compound 43A]: the EC50 was 10 to 100 nM. For the compound `C=CC1([C@@H]2COc3c(cn(C)c3C(=O)Nc3ccc(F)c(C#N)c3)S(=O)(=O)N2)CCS(=O)(=O)CC1` [Compound 43B], the EC50 fell in the range of 10 to 100 nM.

With `C=CC[C@H](O)[C@]1(C)COc2c(cn(C)c2C(=O)Nc2ccc(F)c(C#N)c2)S(=O)(=O)N1` [Compound 44A], the EC50 was 10 to 100 nM. Consider `C=CC[C@@H](O)[C@@]1(C)COc2c(cn(C)c2C(=O)Nc2ccc(F)c(C#N)c2)S(=O)(=O)N1` [Compound 44B], for which the EC50 was 1 to 10 nM. With `C=CC(C)(C)[C@H]1COc2c(cn(C)c2C(=O)Nc2ccc(F)c(C#N)c2)S(=O)(=O)N1` [Compound 45A] the figure was 1 to 10 nM. With `C=CC(C)(C)[C@@H]1COc2c(cn(C)c2C(=O)Nc2ccc(F)c(C#N)c2)S(=O)(=O)N1` [Compound 45B], the EC50 was 1 to 10 nM. `CC#CC[C@H]1COc2c(cn(C)c2C(=O)Nc2ccc(F)c(C#N)c2)S(=O)(=O)N1` [Compound 46] had an EC50 of 1 to 10 nM. Take `C=CC[C@H]1COc2c(cn(C)c2C(=O)Nc2ccc(F)c(C#N)c2)S(=O)(=O)N1` [Compound 47]: the EC50 lay in the range of 1 to 10 nM.

Usually EC50 stands for the midpoint of the concentration-response curve.

For the origin of these results see US11033556B2, “Bicyclic sulfonamides” (priority 2019, dated 2021).
